In ChEMBL document CHEMBL3085700 (J Med Chem, 2013):
The source made the active and inactive calls. No cut-off for these calls is given here.

Legend:
[1] = target: T1, Lysophosphatidylserine lipase ABHD12 (Homo sapiens) (UniProt Q8N2K0); assay: Inhibition of human ABHD12 overexpressed in HEK293 cells assessed as 2-AG hydrolysis at 1 uM by fluorescent glycerol assay; format: cell-based
T1 sequence (whole entry): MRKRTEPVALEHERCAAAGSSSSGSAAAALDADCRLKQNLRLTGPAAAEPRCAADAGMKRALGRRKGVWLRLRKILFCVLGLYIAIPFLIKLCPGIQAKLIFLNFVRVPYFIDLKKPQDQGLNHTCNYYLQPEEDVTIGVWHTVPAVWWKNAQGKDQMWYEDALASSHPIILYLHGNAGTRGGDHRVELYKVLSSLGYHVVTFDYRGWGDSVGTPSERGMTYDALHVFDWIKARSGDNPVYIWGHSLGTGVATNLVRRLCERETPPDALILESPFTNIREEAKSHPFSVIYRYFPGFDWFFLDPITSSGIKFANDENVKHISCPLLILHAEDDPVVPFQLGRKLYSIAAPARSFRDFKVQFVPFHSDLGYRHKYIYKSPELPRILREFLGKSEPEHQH

[2] = target: T2, Fatty-acid amide hydrolase 1 (Homo sapiens, UniProt O00519); assay: Inhibition of human recombinant FAAH overexpressed in African green monkey COS7 cells using [3H]-anandamide as substrate preincubated for 10 mins before substrate addition measured after 10 mins by liquid scintillation counting analysis; format: cell-based, COS-7
T2 sequence (O00519 whole entry): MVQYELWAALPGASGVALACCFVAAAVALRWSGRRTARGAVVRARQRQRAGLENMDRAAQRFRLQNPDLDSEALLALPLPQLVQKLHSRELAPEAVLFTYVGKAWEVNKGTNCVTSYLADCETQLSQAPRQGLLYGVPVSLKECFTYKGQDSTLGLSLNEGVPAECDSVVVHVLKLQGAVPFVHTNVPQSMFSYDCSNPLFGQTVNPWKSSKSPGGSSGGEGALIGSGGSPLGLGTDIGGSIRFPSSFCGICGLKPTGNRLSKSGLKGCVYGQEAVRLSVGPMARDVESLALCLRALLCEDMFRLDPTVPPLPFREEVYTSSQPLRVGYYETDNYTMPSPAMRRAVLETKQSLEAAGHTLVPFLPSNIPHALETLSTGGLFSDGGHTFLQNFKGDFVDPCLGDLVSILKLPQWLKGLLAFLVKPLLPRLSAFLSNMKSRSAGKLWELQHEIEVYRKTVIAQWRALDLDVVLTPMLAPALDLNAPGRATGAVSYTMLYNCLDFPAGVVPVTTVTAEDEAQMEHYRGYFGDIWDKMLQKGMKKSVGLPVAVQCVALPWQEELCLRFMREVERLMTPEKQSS

[3] = target: T3, Monoglyceride lipase (Homo sapiens) (UniProt Q99685); assay: Inhibition of human recombinant MAGL overexpressed in HEK cells using 2-AG as substrate at 10 uM preincubated for 10 mins before substrate addition measured after 10 mins by HPLC analysis relative to control; format: cell-based; settings: HEK293
T3 sequence (whole entry): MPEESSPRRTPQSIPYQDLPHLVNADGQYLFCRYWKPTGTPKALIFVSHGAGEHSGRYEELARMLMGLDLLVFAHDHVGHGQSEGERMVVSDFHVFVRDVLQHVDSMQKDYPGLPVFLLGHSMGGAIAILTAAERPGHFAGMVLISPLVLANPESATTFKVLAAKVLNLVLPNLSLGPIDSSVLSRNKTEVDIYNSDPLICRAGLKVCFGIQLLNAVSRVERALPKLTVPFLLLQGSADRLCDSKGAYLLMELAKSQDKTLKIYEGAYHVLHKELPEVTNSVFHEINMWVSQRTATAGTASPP

[4] = target: T4, Monoacylglycerol lipase ABHD6 (Homo sapiens) (UniProt Q9BV23); assay: Inhibition of human ABHD6 overexpressed in HEK293 cells assessed as 2-AG hydrolysis at 1 uM by fluorescent glycerol assay; format: cell-based
T4 sequence (whole entry): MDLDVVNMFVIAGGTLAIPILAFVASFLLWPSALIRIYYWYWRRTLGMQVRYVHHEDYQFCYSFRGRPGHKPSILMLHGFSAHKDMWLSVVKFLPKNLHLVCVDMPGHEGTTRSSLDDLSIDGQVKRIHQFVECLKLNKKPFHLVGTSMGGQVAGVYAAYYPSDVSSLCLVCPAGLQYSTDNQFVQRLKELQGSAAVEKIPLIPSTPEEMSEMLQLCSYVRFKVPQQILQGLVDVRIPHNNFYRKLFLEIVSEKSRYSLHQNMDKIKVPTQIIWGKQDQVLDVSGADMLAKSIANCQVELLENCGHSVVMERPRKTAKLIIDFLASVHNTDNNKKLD

[5] = target: T5, Fatty-acid amide hydrolase 1 (Homo sapiens) (UniProt O00519); assay: Inhibition of human recombinant FAAH overexpressed in African green monkey COS7 cells using [3H]-anandamide as substrate at 10 uM preincubated for 10 mins before substrate addition measured after 10 mins by liquid scintillation counting analysis relative to control; format: cell-based; settings: COS-7
T5 sequence (whole entry): T2 sequence (O00519 whole entry)

[6] = target: T6, Prostaglandin G/H synthase 1 (Ovis aries) (UniProt P05979); assay: Inhibition of ovine COX-1 using arachidonic acid as substrate assessed as oxygen consumption at 30 uM measured within 10 to 50 secs
T6 sequence (whole entry): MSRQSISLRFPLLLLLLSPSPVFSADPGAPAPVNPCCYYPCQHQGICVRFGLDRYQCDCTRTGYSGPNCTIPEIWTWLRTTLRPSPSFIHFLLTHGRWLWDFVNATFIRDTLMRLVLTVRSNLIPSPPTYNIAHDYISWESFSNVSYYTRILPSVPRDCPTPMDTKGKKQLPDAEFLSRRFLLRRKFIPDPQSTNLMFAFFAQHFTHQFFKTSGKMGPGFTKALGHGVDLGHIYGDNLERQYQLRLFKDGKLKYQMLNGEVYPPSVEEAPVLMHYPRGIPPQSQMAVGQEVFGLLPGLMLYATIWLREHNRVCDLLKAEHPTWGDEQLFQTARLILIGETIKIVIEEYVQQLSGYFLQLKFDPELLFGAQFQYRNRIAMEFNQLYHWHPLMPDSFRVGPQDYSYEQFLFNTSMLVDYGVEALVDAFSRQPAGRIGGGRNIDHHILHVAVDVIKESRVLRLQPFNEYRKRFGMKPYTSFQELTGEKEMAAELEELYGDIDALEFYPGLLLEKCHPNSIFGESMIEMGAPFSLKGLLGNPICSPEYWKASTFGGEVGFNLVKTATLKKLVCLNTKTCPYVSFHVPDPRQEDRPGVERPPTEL

Monoglyceride lipase = target: T7, Monoglyceride lipase (Homo sapiens, UniProt Q99685); assay: Inhibition of human recombinant MAGL overexpressed in HEK cells using 2-AG as substrate preincubated for 10 mins before substrate addition measured after 10 mins by HPLC analysis; format: cell-based, HEK293
T7 sequence (Q99685 whole entry): T3 sequence (whole entry)

[7] = target: T5, Fatty-acid amide hydrolase 1 (Homo sapiens); assay: Inhibition of human recombinant FAAH overexpressed in African green monkey COS7 cells using [3H]-anandamide as substrate at 10 to 300 uM preincubated for 10 to 60 mins by liquid scintillation counting analysis; format: cell-based; settings: COS-7
[8] = target: Cannabinoid receptor 1 (Rattus norvegicus) (UniProt P20272); assay: Antagonist activity at CB1 receptor in rat cerebellar membranes assessed as HU210-evoked response up to 10 uM incubated for 10 mins prior to testing by [35S]GTPgammaS binding assay; format: functional, cell membranes; settings: Cerebellum, Membrane
Sequence of Cannabinoid receptor 1 (Rattus norvegicus) (P20272 whole entry): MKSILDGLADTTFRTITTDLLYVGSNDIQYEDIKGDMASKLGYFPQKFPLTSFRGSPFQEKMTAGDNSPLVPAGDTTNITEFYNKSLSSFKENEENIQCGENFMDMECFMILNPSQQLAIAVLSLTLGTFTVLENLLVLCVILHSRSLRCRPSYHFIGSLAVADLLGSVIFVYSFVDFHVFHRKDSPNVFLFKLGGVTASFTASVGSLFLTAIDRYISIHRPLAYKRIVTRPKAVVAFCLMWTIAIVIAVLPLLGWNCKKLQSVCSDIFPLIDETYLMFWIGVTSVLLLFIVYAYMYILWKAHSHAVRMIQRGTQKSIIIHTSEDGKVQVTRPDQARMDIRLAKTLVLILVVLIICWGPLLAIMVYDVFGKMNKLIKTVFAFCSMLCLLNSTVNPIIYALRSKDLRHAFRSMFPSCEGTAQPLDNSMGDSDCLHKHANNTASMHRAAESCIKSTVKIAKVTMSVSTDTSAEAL

[9] = target: T5, Fatty-acid amide hydrolase 1 (Homo sapiens); assay: Inhibition of human recombinant FAAH overexpressed in African green monkey COS7 cells using [3H]-anandamide as substrate at 10 to 100 uM preincubated for 10 to 60 mins by liquid scintillation counting analysis; format: cell-based; settings: COS-7
[10] = target: Cannabinoid receptor 1 (Rattus norvegicus) (UniProt P20272); assay: Agonist activity at CB1 receptor in rat cerebellar membranes up to 10 uM incubated for 10 mins prior to testing by [35S]GTPgammaS binding assay; format: functional, cell membranes; settings: Cerebellum, Membrane
[11] = target: T5, Fatty-acid amide hydrolase 1 (Homo sapiens); assay: Inhibition of human recombinant FAAH overexpressed in African green monkey COS7 cells using [3H]-anandamide as substrate at 3 to 30 uM preincubated for 10 to 60 mins by liquid scintillation counting analysis; format: cell-based; settings: COS-7
[12] = target: T5, Fatty-acid amide hydrolase 1 (Homo sapiens); assay: Reversible inhibition of human recombinant FAAH overexpressed in African green monkey COS7 cells using […] as substrate assessed as recovery of enzyme activity at 20 x IC50 preincubated for 60 mins followed by 500 fold dilution measured after 10 mins by HPLC analysis; format: cell-based; settings: COS-7
[13] = target: T5, Fatty-acid amide hydrolase 1 (Homo sapiens); assay: Noncompetitive inhibition of human recombinant FAAH overexpressed in African green monkey COS7 cells using anandamide as substrate assessed as decrease in Vmax of substrate hydrolysis preincubated for 10 mins before substrate addition measured after 10 mins by HPLC analysis; settings: COS-7
[14] = target: Cannabinoid receptor 2 (Homo sapiens) (UniProt P34972); assay: Agonist activity at human CB2 receptor expressed in CHO cell membranes up to 10 uM incubated for 10 mins prior to testing by [35S]GTPgammaS binding assay; format: functional
Sequence of Cannabinoid receptor 2 (Homo sapiens) (P34972 whole entry): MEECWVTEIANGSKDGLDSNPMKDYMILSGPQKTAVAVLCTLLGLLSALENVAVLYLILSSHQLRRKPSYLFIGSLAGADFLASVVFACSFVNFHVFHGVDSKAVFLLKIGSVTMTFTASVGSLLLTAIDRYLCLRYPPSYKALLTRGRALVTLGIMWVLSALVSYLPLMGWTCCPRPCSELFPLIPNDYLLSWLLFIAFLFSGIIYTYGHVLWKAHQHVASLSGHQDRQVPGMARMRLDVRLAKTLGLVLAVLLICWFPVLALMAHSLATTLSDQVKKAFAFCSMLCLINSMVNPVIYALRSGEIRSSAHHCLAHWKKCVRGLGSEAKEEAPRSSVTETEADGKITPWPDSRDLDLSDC

Structure (SMILES) | inhibition [1] | IC50 ([2]; read-out: IC50) [nM] | IC50 ([2]; read-out: pIC50 (converted)) [nM] | inhibition [3] | inhibition [4] | other results
COc1nn(C(C)c2cccc(-c3ccccc3)c2)c(=O)o1 (stereo not given) | inactive | 1200 | 1170 | 42% | inactive | 
COc1nn(C(C)c2cccc(Oc3ccccc3)c2)c(=O)o1 (stereo not given) | inactive | 5200 | 5250 | 14% | inactive | 
COc1nn(C2CCCCC2)c(=O)o1 | inactive |  |  | inactive | inactive | inhibition [5]: 40%
COc1nn(C(C)c2ccc(-c3ccccc3)cc2)c(=O)o1 (racemic) | inactive | 48 | 46.8 | 34% | inactive | 
COc1nn(C(c2ccccc2)c2ccccc2)c(=O)o1 | inactive |  |  | inactive | inactive | inhibition [5]: inactive
CC(C(=O)O)c1ccc(-c2ccccc2)c(F)c1 (stereo not given) |  |  |  |  |  | inhibition [6]: Active
COc1nn(Cc2cccc(-c3ccccc3)c2)c(=O)o1 | inactive |  |  | 32% | inactive | inhibition [5]: 46%
COc1nn(Cc2cccc(Oc3ccccc3)c2)c(=O)o1 | inactive | 980 | 977 | 15% | inactive | 
COc1nn(Cc2ccc(CC(C)C)cc2)c(=O)o1 | inactive | 91 | 89.1 |  | inactive | IC50 (Monoglyceride lipase; read-out: IC50): 1300 nM
COc1nn(Cc2ccccc2)c(=O)o1 | inactive |  |  | inactive | inactive | inhibition [5]: inactive
COc1nn(Cc2ccccc2Oc2ccccc2)c(=O)o1 | inactive | 6300 | 6310 | inactive | inactive | 
COc1nn([C@H](C)c2ccc(-c3ccccc3)cc2)c(=O)o1 | inactive | 3000 | 2880 | 49% | inactive | 
COc1nn(C(C)c2ccc(CC(C)C)cc2)c(=O)o1 (racemic) | inactive | 23 | 22.9 | 48% | inactive | 
COc1nn([C@H](C)c2ccc(N(c3ccccc3)c3ccccc3)cc2)c(=O)o1 | inactive | 6300 | 6170 |  | inactive | IC50 (Monoglyceride lipase; read-out: IC50): 350 nM; IC50 (Monoglyceride lipase; read-out: pIC50 (converted)): 339 nM
COc1nn([C@@H](C)c2ccc(-c3ccccc3)cc2)c(=O)o1 | inactive | 23 | 23.4 | 18% | inactive | inhibition [7]: Active; Activity [8]: inactive; inhibition [9]: Active; Activity [10]: inactive; inhibition [11]: Active; inhibition [12]: Active; inhibition [13]: Dose-dependent effect; Activity [14]: inactive
COc1nn(Cc2ccc(-c3ccccc3)cc2)c(=O)o1 | inactive | 160 | 162 |  | inactive | IC50 (Monoglyceride lipase; read-out: IC50): 1600 nM
COc1nn(C(C)c2ccc(Oc3ccccc3)cc2)c(=O)o1 (stereo not given) | inactive | 34 | 33.9 |  | inactive | IC50 (Monoglyceride lipase; read-out: IC50): 2000 nM
COc1nn(Cc2ccc(N(c3ccccc3)c3ccccc3)cc2)c(=O)o1 | inactive | 470 | 457 |  | inactive | IC50 (Monoglyceride lipase; read-out: IC50): 260 nM
COc1nn(Cc2ccc(Oc3ccccc3)cc2)c(=O)o1 | inactive |  | 100 |  | inactive | IC50 ([2]; cos-7, read-out: IC50): 100 nM; IC50 (Monoglyceride lipase; read-out: IC50): 400 nM
COc1nn([C@@H](C)c2ccc(N(c3ccccc3)c3ccccc3)cc2)c(=O)o1 | inactive | 98 | 100 | 41% | inactive | inhibition [7]: Active; inhibition [9]: Active; inhibition [11]: Active; inhibition [12]: Active; inhibition [13]: Dose-dependent effect
COc1nn(C(C)c2ccccc2)c(=O)o1 (stereo not given) | inactive | 6000 | 6030 | inactive | inactive | 
COc1nn(C(C)C)c(=O)o1 | inactive |  |  | 6% | inactive | inhibition [5]: 12%
